Data on 2 compounds can be found in patent EP4595961A1, “SELEXIPAG FOR USE IN THE TREATMENT AND/OR PREVENTION OF ATHEROSCLEROSIS” (SORBONNE UNIVERSITE, priority 2024, dated 2025).

Read-outs that look alike come from different tables or passages of the source. Bounds are passed on as bounds.

Experiment [1] deals with vascular smooth muscle cells-derived foam cells. As to the kind of experiment: Radioisotopic cholesterol efflux assay ([3H]-cholesterol-loaded VSMCs). The class given is cell-based, human. An excerpt: Primary cultures of aortic smooth muscle cells (AoSMC) obtained from a human diabetic and obese donor ([…]) were purchased from Lonza (D-AoSMC CloneticsTM). Cells were cultivated on 12-well plates at 50 000 cells/well in a growth medium composed of the Smooth Muscle Basal Medium (SmBM, Lonza) supplemented with 0.2% hEGF, 0.1% insulin, 0.2% hFGF-B, 5% Fetal Bovine Serum (FBS) and 0.1% gentamicin/amphotericin-B (SingleQuots, Lonza, concentrations not specified) according to Lonza's instructions. The foam phenotype was induced when cells reached a subconfluent density. During all the experiments, cells were maintained within an atmosphere enriched with 5% CO2 at 37°C and were used at passages ranging from 6 to 9. […]
Cholesterol efflux assay was performed as previously described by using [3H]-cholesterol-loaded VSMCs. […] Fractional cholesterol efflux, expressed as a percentage, was calculated as the amount of the radioactivity recovered in the cleared medium divided by the total radioactivity (radioactivity in the medium + radioactivity in the cells). Radioactivity in the cells was obtained after the lipid extraction in a mixture of hexane isopropanol (3:2 v/v) and was determined by liquid scintillation counting on a Wallac Trilux 1450 Microbeta scintillation counter (PerkinElmer, MA, USA). […]

The next experiment concerns ABCA1. As to the kind of experiment: ABCA1 gene expression by real-time RT-PCR in aortic smooth muscle cells. The class given is cell-based, human. The following applies: normalized with HPRT, n=1 or 2. Here is the method: (§1) The cells, grown to confluence according to the supplier's instructions (Lonza), were serum-depleted, pre-treated for 1h with increasing concentrations of ACT-333679 (i.e. MRE-269), and incubated in the presence of 10ng/mL PDGF-BB for 24h for Figures 4 and 5, and 6h for Figure 6. The treated cells were then incubated during 4 hours with 10µg/mL of fluorescently labelled DiI-oxLDL (Figures 4 and 5) and their ability to internalise the oxLDL was analysed by fluorescence microscopy (Figure 4) and FACS (Figure 5). FACS allows precise quantification of the number of fluorescent cells (i.e. those that have incorporated fluorescent oxLDL) and the intensity of the incorporated fluorescence per cell (i.e. the quantity of incorporated oxLDL/cell). Nuclei were stained with 4'-6'diamidino-2-phenylindol (DAPI) for analysis by fluorescence microscopy (Figure 4) or cells were directly analysed by flow cytometry (Figure 5). A detailed description of the protocol and apparatus used is given in the art.
(§2) Regarding Figure 4, representative images of the analysis of 5 fields examined in two experiments (n=2). […]
(§3) The expression of genes encoding transporters involved in cholesterol efflux (ABCA1: ATP-binding cassette A1 and ABCG1: ATP-binding cassette subfamily G member 1) was measured by real-time RT-PCR. […]
(In qPCR the cycle at which signal appears reflects the starting amount.)

For experiment [2], the system named is human aortic smooth muscle cells. As to the kind of experiment: Internalisation of DiI-oxLDL by aortic smooth muscle cells (fluorescence microscopy and FACS). The following applies: 1h pre-treatment, DiI-oxLDL 10 µg/mL 4 hours, read-out: concentration from which incorporation of oxLDL is inhibited. The class given is cell-based.
A further experiment has as its system ABCG1. As to the kind of experiment: ABCG1 gene expression by real-time RT-PCR in aortic smooth muscle cells. The class given is cell-based, human. The following applies: normalized with HPRT, n=1 or 2. Here is the method: as §1, §2, §3
The mark [3] stands for this setting: pre-treated 1h, then PDGF-BB 10 ng/mL 6h.

Consider `CC(C)N(CCCCOCC(=O)O)c1cnc(-c2ccccc2)c(-c2ccccc2)n1` [MRE-269], for which the Basal cholesterol efflux result in experiment [1] (MRE-269 100 nM alone, no rHDL, basal efflux about 2.6 %) is “not modified”. In experiment [1] (MRE-269 100 nM together with rHDL 20 µg/mL, 24h, n=6), this compound registered a cholesterol efflux of 20.21%. For the same compound, the “Expression of PDGF-BB-inhibited ABCA1 gene” value with ABCA1 (setting [3]) is reported as “partially restored”. Also, the minimal effective concentration in experiment [2] (Homo sapiens, basal incorporation) was ≥ 0.005 µM; in experiment [2] (incorporation stimulated by PDGF-BB 10 ng/mL 24h) it was ≥ 0.005 µM. Besides, the “Expression of PDGF-BB-inhibited ABCG1 gene” value with ABCG1 (setting [3]) was “partially restored”.
Turning to `CC(C)N(CCCCOCC(=O)NS(C)(=O)=O)c1cnc(-c2ccccc2)c(-c2ccccc2)n1` [Selexipag, 2-{4-[(5,6-diphenylpyrazin-2-yl)(isopropyl)amino]butoxy}-N-(methylsulfonyl)acetamide], in the experiment on ABCA1 (basal, no PDGF-BB), the “basal expression of gene encoding ABCA1” value was “increased”. The “basal expression of gene encoding ABCG1” value with ABCG1 (basal, no PDGF-BB) was “increased”.
